In patent EP2073012A1, “Method for the isolation and identification of ADP-ribosylated molecules” (Fondazione Telethon, priority 2007, dated 2009):

Key:
His6-mAf1521 = molecular target: T1, His6-mAf1521 (Archaeoglobus fulgidus, UniProt O28751); assay: Pull-down displacement assay: free ADP-ribose added after pull-down of [32P]-ADP-ribosylated β subunit by resin-bound His6-mAf1521; assay type: binding
T1 construct: made in house
T1 sequence (O28751 1-192): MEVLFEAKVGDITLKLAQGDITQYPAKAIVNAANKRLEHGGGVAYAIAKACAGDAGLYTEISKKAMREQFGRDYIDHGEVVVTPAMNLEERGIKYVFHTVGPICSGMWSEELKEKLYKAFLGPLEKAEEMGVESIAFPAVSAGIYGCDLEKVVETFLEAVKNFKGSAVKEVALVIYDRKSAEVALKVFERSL
Experimental: Samples (10 µg plasma membranes) were incubated with 50 µl ADP-ribosylation buffer (50 mM potassium phosphate buffer (PFB), pH 7.4, 5 mM MgCl2, 4 mM dithiothreitol (DTT), 10 µM GTPγS, 700 µM β-NAD^+ and 4.5 µCi [^32P]-NAD (specific activity: 1,000 Ci/mmol)) at 37 °C for 60 min, unless otherwise specified. Under these conditions, 10% of the total β was mono-ADP-ribosylated; to obtain maximal modification (80%-100% of total β mono-ADP-ribosylated), the incubation was prolonged to 12 h at 30 °C. The in-vitro PT-catalyzed ADP-ribosylation was performed as previously described^34, using either total membranes or purified proteins (β-action or SLC25A5; Sigma and Abnova Corporation, respectively). […]
Plasma membranes (10 µg for each sample) were ADP-ribosylated as described above, washed with 50 mM PFB, pH 7.4, to remove unbound NAD, and then centrifuged at 16.000x g for 15 min at 4 °C. […] Then the resin was washed three times with RIPA buffer plus 10 mM imidazole, and finally both the washed resin and the unbound fraction (one-eight of the total volume) were diluted in 50 µl Laemmli buffer, boiled and analysed by 10% SDS-PAGE. […] The gels underwent colloidal Coomassie blue (blue code, Pierce) or silver staining, and the bands of interest were analysed by MALDI-TOF-MS. […]

BAL9 = conditions: cited from earlier work
Af1521 = molecular target: T2, Af1521 (Archaeoglobus fulgidus, UniProt O28751); conditions: cited from earlier work
T2 sequence (O28751 1-192): T1 sequence (O28751 1-192)

excess of ADP-ribose able to displace the immobilized ADP-ribosylated β subunit from the His6-mAf1521-resin complex (His6-mAf1521; molar excess over bound β subunit) [fold] | ADP-ribose concentration to displace all of the His6-mAf1521-bound [32P]-ADP-ribosylated β subunit (His6-mAf1521; ∼400 pmol ADP-ribose against ∼4 pmol bound β subunit) [µM] | Compound | fold lower affinity than free ADP-ribose (BAL9) [fold] | fold lower affinity than free ADP-ribose (Af1521) [fold]
~100 | 100 | ADP-ribose |  | 
 |  | NC(=O)c1ccc[n+]([C@@H]2O[C@H](COP(=O)([O-])OP(=O)(O)OC[C@H]3O[C@@H](n4cnc5c(N)ncnc54)[C@H](O)[C@@H]3O)[C@@H](O)[C@H]2O)c1 [NAD] | > 1000 | > 1000
 |  | Nc1ncnc2c1ncn2[C@@H]1O[C@H](CO)[C@@H](O)[C@H]1O [adenosine] | > 1000 | > 1000
